Experimental data as given in patent publication US20260355196A1, “INHIBITORS AND DEGRADERS OF PIP4K PROTEIN” (Larkspur Biosciences, Inc., priority 2023, published 2026).

Biological target: T1, PIP4K2C (Homo sapiens, UniProt Q8TBX8)
T1 sequence (Q8TBX8 1-421): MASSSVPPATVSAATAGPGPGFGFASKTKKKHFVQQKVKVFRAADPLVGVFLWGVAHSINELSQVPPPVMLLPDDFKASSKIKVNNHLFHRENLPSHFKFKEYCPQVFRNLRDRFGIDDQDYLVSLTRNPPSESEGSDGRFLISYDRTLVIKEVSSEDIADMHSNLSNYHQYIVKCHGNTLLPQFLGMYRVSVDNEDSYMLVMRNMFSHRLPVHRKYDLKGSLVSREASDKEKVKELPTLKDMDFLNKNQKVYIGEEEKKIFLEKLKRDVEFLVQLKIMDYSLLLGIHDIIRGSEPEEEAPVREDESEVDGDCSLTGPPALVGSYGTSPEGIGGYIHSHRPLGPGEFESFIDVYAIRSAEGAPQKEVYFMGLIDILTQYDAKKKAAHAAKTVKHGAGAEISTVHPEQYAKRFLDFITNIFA
Assay: Enzyme Binding Assay (KINOMEscan): active site-directed competition binding to an immobilized ligand
Parameters: purchased Eurofins DiscoverX, San Diego, CA 87-0007-1094
Conditions: 11-point dose response, duplicate, top concentration 5 micromolar; read-out: Pip4k2c Kd: IC50
In short: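 IC50 values come from Hill-equation fits (Levenberg-Marquardt) to 11-point duplicate titrations starting at 5 micromolar. Read-out is competition of compound with an immobilized ligand for the kinase active site.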

SMILES | IC50
CC(=O)N[C@H]1CC[C@H](Nc2ncc(Cl)c(-c3cccc(-n4ccccc4=O)c3)n2)CC1 [Compound 102, trans-N-((1r,4r)-4-((5-chloro-4-(3-(2-oxopyridin-1 (2H)-yl)phenyl)pyrimidin-2-yl)amino)cyclohexyl)acetamide] | < 500 nM
CNC(=O)[C@H]1CC[C@H](Nc2ncc(Cl)c(-c3cccc(-n4ccccc4=O)c3)n2)CC1 [Compound 103, trans-(1r,4r)-4-((5-chloro-4-(3-(2-oxopyridin-1 (2H)-yl)phenyl)pyrimidin-2-yl)amino)-N-methylcyclohexane-1-carboxamide] | < 500 nM
CNC(=O)[C@H]1CC[C@@H](Nc2ncc(Cl)c(-c3cccc(-n4ccccc4=O)c3)n2)CC1 [Compound 104, cis-(1s,4s)-4-((5-chloro-4-(3-(2-oxopyridin-1 (2H)-yl)phenyl)pyrimidin-2-yl)amino)-N-methylcyclohexane-1-carboxamide] | < 500 nM
CC(=O)N1CCC(Nc2ncc(Cl)c(-c3ccnc(-c4ccc(F)cc4)c3)n2)CC1 [Compound 105, 1-(4-((5-chloro-4-(2-(4-fluorophenyl)pyridin-4-yl)pyrimidin-2-yl)amino)piperidin-1-yl)ethan-1-one] | < 500 nM
CNC(=O)[C@H]1CC[C@H](Nc2ncc(Cl)c(-c3ccc(=O)n(C4CC4)c3)n2)CC1 [Compound 106, trans-(1r,4r)-4-((5-chloro-4-(1-cyclopropyl-6-oxo-1,6-dihydropyridin-3-yl)pyrimidin-2-yl)amino)-N-methylcyclohexane-1-carboxamide] | 500 to 1000 nM
CNC(=O)[C@H]1CC[C@@H](Nc2ncc(Cl)c(-c3cnn(C4CC4)c3)n2)CC1 [Compound 107, cis-(1s,4s)-4-((5-chloro-4-(1-cyclopropyl-1H-pyrazol-4-yl)pyrimidin-2-yl)amino)-N-methylcyclohexane-1-carboxamide] | 500 to 1000 nM
CNC(=O)[C@H]1CC[C@@H](Nc2ncc(Cl)c(-c3cnn(C4CCCCC4)c3)n2)CC1 [Compound 108, cis-(1s,4s)-4-((5-chloro-4-(1-cyclohexyl-1H-pyrazol-4-yl)pyrimidin-2-yl)amino)-N-methylcyclohexane-1-carboxamide] | 1000 to 5000 nM
CC(=O)N1CCC(Nc2ncc(Cl)c(-c3ccn(C4CCCCC4)n3)n2)CC1 [Compound 109, 1-(4-((5-chloro-4-(1-cyclohexyl-1H-pyrazol-3-yl)pyrimidin-2-yl)amino)piperidin-1-yl)ethan-1-one] | 1000 to 5000 nM
CC(=O)N1CCC(Nc2ncc(Cl)c(-c3cnn(-c4ccc(=O)[nH]c4)c3)n2)CC1 [Compound 110, 5-(4-(2-((1-acetylpiperidin-4-yl)amino)-5-chloropyrimidin-4-yl)-1H-pyrazol-1-yl)pyridin-2(1H)-one] | < 500 nM
CC(=O)N1CCC(Nc2ncc(Cl)c(-c3cnn(-c4ccc[nH]c4=O)c3)n2)CC1 [Compound 111, 3-(4-(2-((1-acetylpiperidin-4-yl)amino)-5-chloropyrimidin-4-yl)-1H-pyrazol-1-yl)pyridin-2(1H)-one] | < 500 nM
CC(=O)N1CCC(Nc2ncc(Cl)c(-c3cccc(-c4ccc(F)cc4)n3)n2)CC1 [Compound 114, 1-(4-((5-chloro-4-(6-(4-fluorophenyl)pyridin-2-yl)pyrimidin-2-yl)amino)piperidin-1-yl)ethan-1-one] | < 500 nM
CNC(=O)[C@H]1C[C@@H](Nc2ncc(Cl)c(-c3cccc(-c4ccc(F)cc4)n3)n2)C1 [Compound 115, cis-3-((5-chloro-4-(6-(4-fluorophenyl)pyridin-2-yl)pyrimidin-2-yl)amino)-N-methylcyclobutane-1-carboxamide] | < 500 nM
CC(=O)N[C@H]1CC[C@H](Nc2ncc(Cl)c(-c3cnn(C4CC4)c3)n2)CC1 [Compound 116, trans-N-((1r,4r)-4-((5-chloro-4-(1-cyclopropyl-1H-pyrazol-4-yl)pyrimidin-2-yl)amino)cyclohexyl)acetamide] | < 500 nM
CNC(=O)[C@H]1CC[C@H](Nc2ncc(Cl)c(-c3cnn(C4CC4)c3)n2)CC1 [Compound 117, trans-(1r,4r)-4-((5-chloro-4-(1-cyclopropyl-1H-pyrazol-4-yl)pyrimidin-2-yl)amino)-N-methylcyclohexane-1-carboxamide] | < 500 nM
CNC(=O)[C@H]1CC[C@H](Nc2ncc(Cl)c(-c3cnn(C4CCCCC4)c3)n2)CC1 [Compound 118, trans-(1r,4r)-4-((5-chloro-4-(1-cyclohexyl-1H-pyrazol-4-yl)pyrimidin-2-yl)amino)-N-methylcyclohexane-1-carboxamide] | < 500 nM
CNC(=O)[C@H]1C[C@H](Nc2ncc(Cl)c(-c3cnn(-c4ccc(=O)[nH]c4)c3)n2)C1 [Compound 119, trans-(1r,3r)-3-((5-chloro-4-(1-(6-oxo-1,6-dihydropyridin-3-yl)-1H-pyrazol-4-yl)pyrimidin-2-yl)amino)-N-methylcyclobutane-1-carboxamide] | < 500 nM

SMILES | IC50
CC(=O)N1CCC(Nc2ncc(Cl)c(-c3cnn(-c4cc[nH]c(=O)c4)c3)n2)CC1 [Compound 120, 4-(4-(2-((1-acetylpiperidin-4-yl)amino)-5-chloropyrimidin-4-yl)-1H-pyrazol-1-yl)pyridin-2(1H)-one] | < 500 nM
CC(=O)N[C@H]1CC[C@H](Nc2ncc(Cl)c(-c3cnn(-c4ccc(F)cc4)c3)n2)CC1 [Compound 121, trans-N-((1r,4r)-4-((5-chloro-4-(1-(4-fluorophenyl)-1H-pyrazol-4-yl)pyrimidin-2-yl)amino)cyclohexyl)acetamide] | < 500 nM
CNC(=O)[C@H]1C[C@@H](Nc2ncc(Cl)c(-c3cnn(-c4ccc(F)cc4)c3)n2)C1 [Compound 122, cis-(1s,3s)-3-((5-chloro-4-(1-(4-fluorophenyl)-1H-pyrazol-4-yl)pyrimidin-2-yl)amino)-N-methylcyclobutane-1-carboxamide] | < 500 nM
CNC(=O)[C@H]1C[C@H](Nc2ncc(Cl)c(-c3cnn(-c4ccc(F)cc4)c3)n2)C1 [Compound 123, trans-(1r,3r)-3-((5-chloro-4-(1-(4-fluorophenyl)-1H-pyrazol-4-yl)pyrimidin-2-yl)amino)-N-methylcyclobutane-1-carboxamide] | 500 to 1000 nM
CC(=O)N[C@H]1CC[C@H](Nc2ncc(Cl)c(C3CCCN(C(=O)c4ccc(F)cc4)C3)n2)CC1 (stereo partly drawn) [Compound 124, trans-N-(4-((5-chloro-4-(1-(4-fluorobenzoyl)piperidin-3-yl)pyrimidin-2-yl)amino)cyclohexyl)acetamide] | < 500 nM
CC(=O)N1CCC(Nc2ncc(Cl)c(C3CCCN(C(=O)c4ccc(F)cc4)C3)n2)CC1 (stereo not shown) [Compound 125, 1-(4-((5-chloro-4-(1-(4-fluorobenzoyl)piperidin-3-yl)pyrimidin-2-yl)amino)piperidin-1-yl)ethan-1-one] | 1000 to 5000 nM
CC(=O)N[C@H]1CC[C@H](Nc2ncc(Cl)c(C3CCN(C(=O)c4ccc(F)cc4)C3)n2)CC1 (stereo partly drawn) [Compound 126, trans-N-(4-((5-chloro-4-(1-(4-fluorobenzoyl)pyrrolidin-3-yl)pyrimidin-2-yl)amino)cyclohexyl)acetamide] | 1000 to 5000 nM
CC(=O)N1CCC(Nc2ncc(Cl)c(C3CCN(C(=O)c4ccc(F)cc4)C3)n2)CC1 (stereo not shown) [Compound 127, 1-(4-((5-chloro-4-(1-(4-fluorobenzoyl)pyrrolidin-3-yl)pyrimidin-2-yl)amino)piperidin-1-yl)ethan-1-one] | 500 to 1000 nM
CC(=O)N1CCC[C@H](Nc2ncc(Cl)c(-c3cccc(-c4ccc(F)cc4)c3)n2)C1 [Compound 128, (S)-1-(3-((5-chloro-4-(4′-fluoro-[1,1′-biphenyl]-3-yl)pyrimidin-2-yl)amino)piperidin-1-yl)ethan-1-one] | < 500 nM
CC(=O)N1CCC[C@H](Nc2ncc(Cl)c(-c3cccc(-n4ccccc4=O)c3)n2)C1 [Compound 129, (S)-1-(3-(2-((1-acetylpiperidin-3-yl)amino)-5-chloropyrimidin-4-yl)phenyl)pyridin-2(1H)-one] | < 500 nM
CC(=O)N[C@H]1CC[C@@H](Nc2ncc(Cl)c(-c3cccc(-c4ccc(F)cc4)n3)n2)CC1 [Compound 130, cis-N-((1s,4s)-4-((5-chloro-4-(6-(4-fluorophenyl)pyridin-2-yl)pyrimidin-2-yl)amino)cyclohexyl)acetamide] | < 500 nM
CNC(=O)[C@H]1CC[C@@H](Nc2ncc(Cl)c(-c3cccc(-c4ccc(F)cc4)n3)n2)CC1 [Compound 131, cis-(1s,4s)-4-((5-chloro-4-(6-(4-fluorophenyl)pyridin-2-yl)pyrimidin-2-yl)amino)-N-methylcyclohexane-1-carboxamide] | < 500 nM
CC(=O)N1CCC(Nc2ncc(Cl)c(-c3cc(C4CC4)[nH]n3)n2)CC1 [Compound 132, 1-(4-((5-chloro-4-(5-cyclopropyl-1H-pyrazol-3-yl)pyrimidin-2-yl)amino)piperidin-1-yl)ethan-1-one] | < 500 nM
CNC(=O)[C@H]1C[C@H](Nc2ncc(Cl)c(-c3cnn(-c4cc[nH]c(=O)c4)c3)n2)C1 [Compound 133, trans-(1r,3r)-3-((5-chloro-4-(1-(2-oxo-1,2-dihydropyridin-4-yl)-1H-pyrazol-4-yl)pyrimidin-2-yl)amino)-N-methylcyclobutane-1-carboxamide] | 500 to 1000 nM
CNC(=O)[C@H]1CC[C@H](Nc2ncc(Cl)c(-c3cnn(-c4ccc(F)cc4)c3)n2)CC1 [Compound 134, trans-(1r,4r)-4-((5-chloro-4-(1-(4-fluorophenyl)-1H-pyrazol-4-yl)pyrimidin-2-yl)amino)-N-methylcyclohexane-1-carboxamide] | < 500 nM
